According to ChEMBL document CHEMBL5058564, “EUbOPEN Chemogenomics Library 2 (Incucyte)” (2022):

Experiments:
Assay type in all cases: toxicity, cell-based
HEK-293T = assay: Incucyte cell viability with HEK293T; details: human, 10 µM, compound concentration 10 uM
U2OS = assay: Incucyte cell viability with U2OS; details: human, 10 µM, compound concentration 10 uM
Fibroblast = assay: Incucyte cell viability with human fibroblast; details: 10 µM, compound concentration 10 uM
[1] = 6 h, replicate number 1, timepoint 6 hours
[2] = 6 h, replicate number 2, timepoint 6 hours
[3] = 12 h, replicate number 1, timepoint 12 hours
[4] = 18 h, replicate number 2, timepoint 18 hours
[5] = 24 h, replicate number 1, timepoint 24 hours
[6] = 0 h, replicate number 2, timepoint 0 hours
[7] = 0 h, replicate number 1, timepoint 0 hours
[8] = 12 h, replicate number 2, timepoint 12 hours
[9] = 24 h, replicate number 2, timepoint 24 hours
[10] = 18 h, replicate number 1, timepoint 18 hours
Note: unitless GR value; below 1 slowed growth and below 0 cell loss.

| SMILES | Growth Rate (HEK-293T; [1]) | Growth Rate (HEK-293T; [2]) | Growth Rate (HEK-293T; [3]) | Growth Rate (HEK-293T; [4]) | Growth Rate (HEK-293T; [5]) | Growth Rate (Fibroblast; [7]) | Growth Rate (Fibroblast; [6]) | Growth Rate (Fibroblast; [2]) | Growth Rate (Fibroblast; [3]) | Growth Rate (Fibroblast; [8]) | Growth Rate (Fibroblast; [4]) | Growth Rate (Fibroblast; [9]) | Growth Rate (HEK-293T; [6]) | Growth Rate (HEK-293T; [10]) | Growth Rate (U2OS; [7]) | Growth Rate (Fibroblast; [1]) | Growth Rate (Fibroblast; [10]) | Growth Rate (Fibroblast; [5]) | Growth Rate (HEK-293T; [8]) | Growth Rate (U2OS; [4]) | also measured |
| --- | --- | --- | --- | --- | --- | --- | --- | --- | --- | --- | --- | --- | --- | --- | --- | --- | --- | --- | --- | --- | --- |
| NC(N)=Nc1nc(CSCCC(N)=NS(N)(=O)=O)cs1 [FAMOTIDINE] | 0.72 | 0.45 | 0.65 | 0.89 | 0.96 | 0.55 | 0.42 | 0.22 | 0.41 | 0.17 | 0.4 | 0.89 |  |  |  |  |  |  |  |  | Growth Rate (U2OS; [6]): -1; Growth Rate (U2OS; [1]): 0.18 |
| CCn1c(-c2nc3cc(C(=O)N4CCCC(N)C4)ccc3n2C)cc2ccccc21.Cl (configuration not stated) | 0.72 |  | 0.44 |  | 0.83 |  | 0.99 | 0.43 | -0.23 | 0.52 | 0.56 | 0.6 | -1 | 0.73 | -0.61 | -0.75 | -0.08 | 0.15 |  |  | Growth Rate (U2OS; [1]): 0.71; Growth Rate (U2OS; [3]): 0.95 |
| COc1ccncc1C(=O)NC(=O)Nc1ccc(-c2ccccc2)c(C(F)(F)F)c1 | 0.25 | 0.96 | 0.48 | 0.86 | 0.69 | 0.48 | 0.72 | 0.15 | 0.58 |  |  |  |  | 0.58 |  | -0.12 | 0.7 | 0.92 | 0.74 | 0.94 | Growth Rate (U2OS; [2]): 0.74; Growth Rate (U2OS; [9]): 1 |
| CSCC[C@H](NC=O)C(=O)N[C@@H](CC(C)C)C(=O)N[C@@H](Cc1ccccc1)C(=O)O |  | 0.85 | 1 |  | 0.82 | 0.43 | 0.65 | 0.42 | 0.83 | 0.46 | 0.69 | 0.36 | 0.68 | 0.78 |  | 0.81 | 0.58 | 0.27 | 0.9 | 0.92 | Growth Rate (HEK-293T; [7]): 0.95; Growth Rate (U2OS; [2]): 0.44; Growth Rate (U2OS; [8]): 0.83; Growth Rate (U2OS; [9]): 0.97 |
| CC[C@H]1OC(=O)[C@H](C)[C@@H](O[C@H]2C[C@@](C)(OC)[C@@H](O)[C@H](C)O2)[C@H](C)[C@@H](O[C@@H]2O[C@H](C)C[C@H](N(C)C)[C@H]2O)[C@@]2(C)CC(C)=C(O2)[C@H](C)[C@@H](O)[C@]1(C)O |  | 0.55 |  | 0.75 |  |  |  | 0.95 | 0.38 | 0.44 |  |  |  |  |  | 0.46 | 0.44 | 0.64 | 0.77 | 0.96 | Growth Rate (HEK-293T; [9]): 0.82 |
| CC(=O)c1ccc2c(c1)[C@@H]1C=CC[C@@H]1[C@H](c1cc3c(cc1Br)OCO3)N2 | -0.31 | -0.36 | 0.01 | -0.06 | -0.12 |  |  | -0.8 | -0.78 | -0.47 | -0.23 | -0.18 |  | -0.14 | 0.33 | -0.85 | -0.76 | -0.54 | -0.05 | -0.33 | Growth Rate (HEK-293T; [9]): -0.02; Growth Rate (U2OS; [2]): 0; Growth Rate (U2OS; [3]): 0.01; Growth Rate (U2OS; [8]): -0.23; Growth Rate (U2OS; [10]): 0.03; Growth Rate (U2OS; [5]): -0.17; Growth Rate (U2OS; [9]): -0.31 |
| CCCC(CCC)C(=O)O [VALPROIC ACID] | 0.68 |  |  |  | 0.87 |  | 0.88 |  | 0.85 |  |  |  | 0.39 | 0.94 | 0.41 | 0.27 |  |  |  | 0.81 | Growth Rate (HEK-293T; [7]): 0.84; Growth Rate (U2OS; [6]): -1; Growth Rate (U2OS; [2]): 0.75; Growth Rate (U2OS; [3]): 0.96; Growth Rate (U2OS; [10]): 0.9 |
| C[C@H](N)COC(=O)[C@@H](CCCCN)NC(=O)Cc1c(-c2ccc3ccccc3c2)[nH]c2c1ccc1ccccc12 |  |  | 0.97 |  |  | 0.29 | 0.37 |  |  |  |  |  | 0.88 |  |  | 0.67 | 0.71 | 0.64 |  | 0.76 | Growth Rate (U2OS; [1]): 0.46; Growth Rate (U2OS; [3]): 0.89; Growth Rate (U2OS; [8]): 0.83; Growth Rate (U2OS; [10]): 0.73 |
| O=C(NCCN1CCC(n2c(=O)[nH]c3cc(Cl)ccc32)CC1)c1ccc(F)cc1 [HALOPEMIDE] | -0.01 | 0.96 | 0.56 |  | 0.5 |  |  | 0.12 | -0.23 | 0.66 |  |  |  | 0.67 | 0.7 | -0.01 | -0.17 | -0.39 | 0.68 | 1 | Growth Rate (U2OS; [6]): 0.14 |
| Cc1ccccc1-c1cc(N2CCN(C)CC2)ncc1N(C)C(=O)C(C)(C)c1cc(C(F)(F)F)cc(C(F)(F)F)c1 [NETUPITANT] |  |  | 0.84 | 0.92 | 0.5 | -0.23 | 0.68 |  | 0.63 | 0.31 | 0.71 | 0.71 | 0.7 | 0.72 | -0.52 | 0.24 | 0.73 |  |  |  | Growth Rate (HEK-293T; [7]): 0.83; Growth Rate (HEK-293T; [9]): 0.86 |
| CCc1cc2cc(NS(=O)(=O)c3ccc(C#N)cc3)ccc2n(CC)c1=O | 0.21 |  | 0.34 | 0.84 | 0.13 | 0.94 |  | -0.17 | 0.22 | 0.12 | 0.13 | 0.07 | 0.08 | 0.23 | -0.59 | 0.31 | 0.07 | -0.17 | 0.96 | 0.93 | Growth Rate (HEK-293T; [7]): 1; Growth Rate (HEK-293T; [9]): 0.59; Growth Rate (U2OS; [6]): -0.07; Growth Rate (U2OS; [1]): 0.95; Growth Rate (U2OS; [8]): 0.85; Growth Rate (U2OS; [10]): 0.95; Growth Rate (U2OS; [5]): 0.96 |
| CC1=C(C)C(=O)C(C(C)(C)CC(=O)N(CCCCSC[C@H]2O[C@@H](n3cnc4c(N)ncnc43)[C@@H]3OC(C)(C)O[C@@H]32)Cc2cccc(-c3ccc(Cl)cc3)c2)=C(C)C1=O |  |  | 0.85 | 0.94 | 0.96 | 0.04 | 0.08 |  |  |  |  |  | 0.07 |  | -0.32 |  |  |  | 0.97 | 0.87 | Growth Rate (HEK-293T; [7]): 0.72; Growth Rate (U2OS; [3]): 0.3; Growth Rate (U2OS; [8]): 0.93; Growth Rate (U2OS; [10]): 0.49; Growth Rate (U2OS; [5]): 0.63; Growth Rate (U2OS; [9]): 0.92 |
| Br.Cc1cccc(C2CN(C)CCc3c2cc(O)c(O)c3Cl)c1 (configuration not stated) | 0.81 | 0.45 | 0.71 | 0.81 | 0.93 | -0.09 | 0.18 |  |  |  |  |  | 0.8 | 0.95 |  |  |  |  | 0.8 | 0.92 | Growth Rate (U2OS; [2]): 0.97; Growth Rate (U2OS; [3]): 0.92; Growth Rate (U2OS; [10]): 0.87; Growth Rate (U2OS; [5]): 0.84; Growth Rate (U2OS; [9]): 0.97 |
| CSc1ccccc1N1CCN(CCCCCC(=O)NC2CCCc3ccccc32)CC1.Cl (configuration not stated) | -0.01 | -0.04 | 0.07 | 0.15 | 0.29 | 0.06 |  | 0.95 | 0.31 | 0.26 | 0.24 | 0.23 |  | 0.16 | -0.43 |  | 0.05 | -0.06 | -0.09 | 0.92 | Growth Rate (HEK-293T; [9]): 0.17; Growth Rate (U2OS; [6]): 0.92; Growth Rate (U2OS; [1]): 0.17; Growth Rate (U2OS; [3]): 0.43; Growth Rate (U2OS; [8]): 0.96; Growth Rate (U2OS; [10]): 0.53; Growth Rate (U2OS; [5]): 0.76; Growth Rate (U2OS; [9]): 0.94 |
